# Experimental data: patent US8546451B2 (priority 2005, dated 2013)
# Key:
# [1] = Oral pharmacokinetics in dogs; format: in vivo
# Procedure: (§1) Formulations using polyethylene glycol 300 (PEG300) generally produced higher exposures than microemulsions prepared in Tween 80 diluted in deionized water. […] Importantly, in dogs the exposure in the male 30 mg/kg PEG300 oral dose group exceeded the exposure necessary to produce the maximal effect on prostate reduction in the rat model of LH suppression.
# [2] = molecular target: ER-β ligand binding domain (LBD) (Homo sapiens (Human), UniProt Q92731); assay: ER-β competitive radioligand binding assay with [3H]E2; conditions: read-out: ER-β Ki
# Procedure: Following incubation, plates were harvested with GF/B filters on the Unifilter-96 Harvester (PerkinElmer) and washed three times with ice-cold buffer B (50 mM Tris, pH 7.2). The filter plates were dried at room temperature, then 35 μl Microscint-O cocktail was added to each well and the filter plates were sealed with TopSeal-A. Radioactivity was counted in a TopCount® NXT Microplate Scintillation Counter using the settings for ^3H in Microscint cocktail (PerkinElmer).
# E2 (determined by incubating with 10^−6 M unlabeled E2) and expressing it as a percentage of the specific binding in the absence of test compound.
# [3] = test system: serum testosterone; assay: Recovery of testosterone levels following suppression in rats; format: in vivo, Sprague-Dawley rats
# From the text: Thirty-five (35) male Sprague-Dawley rats weighing approximately 200 g were maintained on a 12-h light/dark cycle with food (2016 Teklad Global 16% Protein Rodent Diet, Harlan, Madison, Wis.) and water available ad libitum. The animal protocol was reviewed and approved by the Institutional Animal Care and Use Committee of the University of Tennessee.
# The test article for this study was weighed and dissolved in PEG 300 (100%) (Acros Organics, NJ) to prepare the appropriate dose formulations. Animals were randomly assigned to one of the ten treatment groups (n =5 animals/group). The animals were housed in groups of 2 to 3 animals per cage. Group 1 was sacrificed at the initiation of the study (Day 1) for determination of baseline testosterone levels in intact animals. Groups 2-7 received daily doses of 1, 3, or 30 mg/kg via oral gavage (˜200 uL) for three days. Groups 2, 3, and 4 were sacrificed on Day 4 to measure maximal testosterone suppression. Groups 5, 6, and 7 were allowed to recover for 14 days with a drug free washout period.
# [4] = Preliminary oral pharmacokinetics in monkeys; format: in vivo
# Procedure: as §1
# [5] = test system: rats; assay: Single and repeated oral administration toxicity in rats; format: in vivo
# From the text: Compound IV was well-tolerated by rats and dogs after single and repeated oral administration (up to 28 days).
# [6] = molecular target: glucocorticoid receptor (GR) (Rattus norvegicus (Rat), UniProt P06536); assay: Cross-reactivity transcriptional activation assay, GR; format: cell-based; conditions: agonist and antagonist modes
# From the text: (§2) Compound IV was screened for cross-reactivity against rat isoforms of glucocorticoid receptor (GR), mineralocorticoids receptor (MR), progesterone receptor (PR), androgen receptor (AR) and human isoforms of farnesoid X receptor (FXR), liver X receptor (LXR), peroxisome proliferator-activated receptors (PPAR-α and PPAR-γ), and retinoid X receptor (RXR-α) in both agonist and antagonist modes in transcriptional activation assays.
# [7] = test system: serum testosterone and total androgens; assay: Testosterone suppression in Cynomolgus monkeys; format: in vivo; conditions: 30 mg/kg oral daily
# [8] = test system: human platelets; assay: In vitro human platelet aggregation assay (thrombin-induced); conditions: platelet rich plasma preincubated 30 seconds; thrombin 0.3 units
# [9] = test system: rats; assay: Gastrointestinal effects in rats; format: in vivo; conditions: oral
# [10] = molecular target: rat ER-α (Rattus norvegicus (Rat), UniProt P06211); assay: cell-based
# Procedure: Transactivation assays in agonist and antagonist modes were performed to identify whether the compound is an agonist, antagonist or a partial.
# Sequencing was performed to determine the absence of any mutations. HEK-293 cells were plated at 100,000 cells per well of a 24 well plate in Dulbecco's Minimal Essential Media (DMEM) +5% charcoal-stripped fetal bovine serum (csFBS). The cells were transfected using Lipofectamine (Invitrogen, Carlsbad, Calif.) with 0.25 μg ERE-LUC, 0.02 μg CMV-LUC (renilla luciferase) and 12.5 ng of rat ER-α or 25 ng rat ER-β. […] Luciferase assays were performed 48 hrs after transfection.
# [11] = test system: CYP3A4/5; assay: CYP450 inhibition in vitro, CYP3A4/5; format: in vitro ADME; conditions: at concentrations <30 μM
# [12] = test system: liver X receptor (LXR); assay: Cross-reactivity transcriptional activation assay, LXR; format: cell-based, human; conditions: agonist and antagonist modes
# From the text: as §2
# Chain of rat ER-α (P06211 whole entry): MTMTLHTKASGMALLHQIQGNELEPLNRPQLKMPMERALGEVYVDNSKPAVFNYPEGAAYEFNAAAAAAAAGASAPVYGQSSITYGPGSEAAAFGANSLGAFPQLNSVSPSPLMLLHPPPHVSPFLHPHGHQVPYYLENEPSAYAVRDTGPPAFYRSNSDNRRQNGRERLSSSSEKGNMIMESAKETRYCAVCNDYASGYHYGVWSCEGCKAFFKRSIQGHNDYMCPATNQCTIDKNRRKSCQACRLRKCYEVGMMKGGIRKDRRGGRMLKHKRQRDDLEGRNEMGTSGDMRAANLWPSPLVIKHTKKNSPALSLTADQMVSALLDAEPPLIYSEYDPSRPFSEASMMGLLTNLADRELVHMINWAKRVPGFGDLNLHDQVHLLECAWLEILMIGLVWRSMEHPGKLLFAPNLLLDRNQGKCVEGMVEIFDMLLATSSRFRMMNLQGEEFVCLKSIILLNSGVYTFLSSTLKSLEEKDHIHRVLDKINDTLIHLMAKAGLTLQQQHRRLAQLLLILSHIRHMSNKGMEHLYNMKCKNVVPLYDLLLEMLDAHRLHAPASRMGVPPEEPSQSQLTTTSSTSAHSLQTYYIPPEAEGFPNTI
# Chain of ER-β ligand binding domain (LBD) (Q92731 264-498, species assumed): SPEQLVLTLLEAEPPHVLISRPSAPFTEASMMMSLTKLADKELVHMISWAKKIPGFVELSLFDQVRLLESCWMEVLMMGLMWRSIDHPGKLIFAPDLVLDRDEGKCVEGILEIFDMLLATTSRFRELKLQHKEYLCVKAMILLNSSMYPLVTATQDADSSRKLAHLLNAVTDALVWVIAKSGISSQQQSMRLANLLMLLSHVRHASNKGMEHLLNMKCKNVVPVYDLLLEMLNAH
# Chain of glucocorticoid receptor (GR) (P06536 whole entry, canonical isoform): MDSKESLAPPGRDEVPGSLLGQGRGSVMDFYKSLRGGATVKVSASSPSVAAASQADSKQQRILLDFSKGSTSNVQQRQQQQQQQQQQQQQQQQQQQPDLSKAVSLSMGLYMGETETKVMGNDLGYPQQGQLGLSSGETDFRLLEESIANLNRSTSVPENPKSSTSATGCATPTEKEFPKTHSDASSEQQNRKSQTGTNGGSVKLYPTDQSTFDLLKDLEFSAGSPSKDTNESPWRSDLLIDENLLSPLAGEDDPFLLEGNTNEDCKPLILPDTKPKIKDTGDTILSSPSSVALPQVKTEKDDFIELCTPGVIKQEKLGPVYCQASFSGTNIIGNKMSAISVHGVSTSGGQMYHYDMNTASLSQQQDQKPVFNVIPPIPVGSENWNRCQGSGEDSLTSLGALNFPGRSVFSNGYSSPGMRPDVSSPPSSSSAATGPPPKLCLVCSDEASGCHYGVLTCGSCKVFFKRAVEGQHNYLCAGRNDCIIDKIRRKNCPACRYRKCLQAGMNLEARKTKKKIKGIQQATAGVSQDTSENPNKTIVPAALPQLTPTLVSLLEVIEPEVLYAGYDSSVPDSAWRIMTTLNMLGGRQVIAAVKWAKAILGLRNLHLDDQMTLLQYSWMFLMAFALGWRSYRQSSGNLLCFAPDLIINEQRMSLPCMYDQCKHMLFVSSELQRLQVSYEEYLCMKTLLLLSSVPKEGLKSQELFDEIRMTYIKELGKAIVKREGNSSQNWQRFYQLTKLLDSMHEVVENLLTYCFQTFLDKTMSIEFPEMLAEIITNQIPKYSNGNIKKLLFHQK
smiles,measurement,setting,value
"O=C(c1ccc(O)c(F)c1)N(c1ccc(O)cc1)c1ccc(F)cc1 [Compound IV, 3-fluoro-N-(4-fluorophenyl)-4-hydroxy-N-(4-hydroxyphenyl)benzamide]",absorption following oral dosing,[1],rapidly absorbed
same,enterohepatic recirculation,[1]; second peak in the terminal phase of plasma concentration-time profiles,undergoes enterohepatic recirculation
same,Ki,[2],15.2 ± 4.1 nM
same,serum testosterone levels,"[3]; 1 mg/kg oral for three days, after 14 day recovery",3.3 ± 1.92 ng/mL
same,serum testosterone suppression,"[3]; 1 mg/kg oral for three days, no recovery",No significant suppression
same,serum testosterone levels,"[3]; 3 mg/kg oral for three days, after 14 day recovery",3.00 ± 1.06 ng/mL
same,serum testosterone levels,"[3]; 3 mg/kg oral for three days, no recovery, baseline 6.4±3.1",1.47 ± 0.26 ng/mL
same,serum testosterone levels,"[3]; 30 mg/kg oral for three days, after 14 day recovery",3.8 ± 1.72 ng/mL
same,serum testosterone levels,"[3]; 30 mg/kg oral for three days, no recovery, baseline 6.4±3.1",1.62 ± 0.49 ng/mL
same,reversibility of pharmacologic castration,"[3]; rats, within 14 days of recovery",reversible
same,absorption following oral dosing,[4],rapidly absorbed
same,oral bioavailability,[4]; preliminary,approximates or exceeds that in dogs
same,tolerability,[5]; single and repeated oral administration (up to 28 days),well-tolerated
same,"pathologic changes in kidney, liver, heart and other non-target-related organs",[5]; up to 28 days oral,no pathologic changes observed
same,agonist or antagonist activity,[6],did not display any agonist or antagonist activity
same,Testosterone Percent reduction from baseline,"[7]; Animal 1, Day 2",16%
same,Testosterone Serum level,"[7]; Animal 1, Day 2",937 pg/mL
same,Total Androgens Percent reduction from baseline,"[7]; Animal 1, Day 2",37%
same,Total Androgens Serum level,"[7]; Animal 1, Day 2",1178 pg/mL
same,Testosterone Percent reduction from baseline,"[7]; Animal 1, Day 3",30%
same,Testosterone Serum level,"[7]; Animal 1, Day 3",784 pg/mL
same,Total Androgens Percent reduction from baseline,"[7]; Animal 1, Day 3",42%
same,Total Androgens Serum level,"[7]; Animal 1, Day 3",1078 pg/mL
same,Testosterone Percent reduction from baseline,"[7]; Animal 1, Day 4",51%
same,Testosterone Serum level,"[7]; Animal 1, Day 4",552 pg/mL
same,Total Androgens Percent reduction from baseline,"[7]; Animal 1, Day 4",47%
same,Total Androgens Serum level,"[7]; Animal 1, Day 4",988 pg/mL
same,Testosterone Percent reduction from baseline,"[7]; Animal 1, Day 5",64%
same,Testosterone Serum level,"[7]; Animal 1, Day 5",403 pg/mL
same,Total Androgens Percent reduction from baseline,"[7]; Animal 1, Day 5",48%
same,Total Androgens Serum level,"[7]; Animal 1, Day 5",966 pg/mL
same,Testosterone Percent reduction from baseline,"[7]; Animal 1, Day 6",58%
same,Testosterone Serum level,"[7]; Animal 1, Day 6",474 pg/mL
same,Total Androgens Percent reduction from baseline,"[7]; Animal 1, Day 6",56%
same,Total Androgens Serum level,"[7]; Animal 1, Day 6",819 pg/mL
same,Testosterone Percent reduction from baseline,"[7]; Animal 3, Day 2",22%
same,Testosterone Serum level,"[7]; Animal 3, Day 2",479 pg/mL
same,Total Androgens Percent reduction from baseline,"[7]; Animal 3, Day 2",48%
same,Total Androgens Serum level,"[7]; Animal 3, Day 2",847 pg/mL
same,Testosterone Percent reduction from baseline,"[7]; Animal 3, Day 3",29%
same,Testosterone Serum level,"[7]; Animal 3, Day 3",437 pg/mL
same,Total Androgens Percent reduction from baseline,"[7]; Animal 3, Day 3",52%
same,Total Androgens Serum level,"[7]; Animal 3, Day 3",786 pg/mL
same,Testosterone Percent reduction from baseline,"[7]; Animal 3, Day 4",33%
same,Testosterone Serum level,"[7]; Animal 3, Day 4",415 pg/mL
same,Total Androgens Percent reduction from baseline,"[7]; Animal 3, Day 4",44%
same,Total Androgens Serum level,"[7]; Animal 3, Day 4",924 pg/mL
same,Testosterone Percent reduction from baseline,"[7]; Animal 3, Day 5",55%
same,Testosterone Serum level,"[7]; Animal 3, Day 5",276 pg/mL
same,Total Androgens Percent reduction from baseline,"[7]; Animal 3, Day 5",60%
same,Total Androgens Serum level,"[7]; Animal 3, Day 5",664 pg/mL
same,Testosterone Percent reduction from baseline,"[7]; Animal 3, Day 6",64%
same,Testosterone Serum level,"[7]; Animal 3, Day 6",221 pg/mL
same,Total Androgens Percent reduction from baseline,"[7]; Animal 3, Day 6",56%
same,Total Androgens Serum level,"[7]; Animal 3, Day 6",726 pg/mL
same,effect on thrombin-induced platelet aggregation,[8],decreased aggregation
same,gastrointestinal motility and gastric acidity,[9]; 30 mg/kg,significant increase
same,peristalsis,[9]; 30 to 300 mg/kg,significant increase
same,ERα activity in transient transfection assays,[10],agonist
same,selectivity for ERα over ERβ in transcriptional activation,[10],49.0 fold
same,antagonist effects on estradiol-stimulated transcriptional activation,"[10]; estradiol 1 nM, concentrations up to 10 μM",no antagonist effects were observed
same,relative selectivity in transactivation potency for ERα over ERβ,[10]; normalized to estradiol values,9.7 fold
same,inhibition of CYP3A4/5,[11],does not inhibit
same,agonist or antagonist activity,[12],did not display any agonist or antagonist activity
